pKi: −log10 of the molar value.

As a reminder, the pKi is the negative decadic logarithm of the Ki, by convention in mol/L.

The target in one assay is T1, human NK2 receptor (Homo sapiens, UniProt P21452).
T1 construct: purchased Perkin Elmer biosignal Inc. 6110510
T1 sequence (P21452 1-398): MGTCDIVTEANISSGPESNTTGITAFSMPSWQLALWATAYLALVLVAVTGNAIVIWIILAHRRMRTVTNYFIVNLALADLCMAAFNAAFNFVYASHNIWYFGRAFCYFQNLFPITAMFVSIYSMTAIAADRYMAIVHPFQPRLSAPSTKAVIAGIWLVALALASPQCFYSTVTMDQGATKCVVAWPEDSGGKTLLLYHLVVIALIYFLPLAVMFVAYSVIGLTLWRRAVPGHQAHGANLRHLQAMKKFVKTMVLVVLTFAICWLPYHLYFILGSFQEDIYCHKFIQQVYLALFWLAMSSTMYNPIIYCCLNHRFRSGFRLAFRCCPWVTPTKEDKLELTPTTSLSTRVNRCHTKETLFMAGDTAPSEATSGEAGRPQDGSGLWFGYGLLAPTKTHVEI
Put plainly: [3H]SR48968 competition binding assay. To be noted: [3H]SR48968 displacement, membranes of CHO cells stably expressing recombinant human NK2 receptor; Ki from IC50 by Cheng-Prussoff. In short, it runs like this:
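Membranes from CHO cells stably expressing recombinant human NK2 were incubated 75 min at RT with [3H]SR48968 at its KD and 10 compound concentrations (0.0003–10 μM) in Tris-HCl pH 7.4, MnCl2, chymostatin, BSA. Filter-bound radioactivity was counted; Hill-fitted IC50 converted to Ki via Cheng-Prusoff.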

The test system of assay [1] is mouse, gerbils and marmosets. To be noted: cited from earlier work.
A further assay has as its system rodents. Conditions: elevated plus maze and light/dark test in rodents; cited from earlier work.

`CN(C(=O)c1ccc(Cl)c(C(F)(F)F)c1)[C@@H]1CN(C(=O)C2CCN(CC3CC3)CC2)C[C@H]1c1ccc(Cl)c(Cl)c1` [Example 167, 4-Chloro-N-[(3S,4R)-1-(1-cyclopropylmethyl-piperidine-4-carbonyl)-4-(3,4-dichloro-phenyl)-pyrrolidin-3-yl]-N-methyl-3-trifluoromethyl-benzamide]: the pKi on human NK2 receptor is 7.03.

For `CN(C(=O)c1ccc(Cl)c(C(F)(F)F)c1)[C@H]1CN(C(=O)C2CCN(CC3CC3)CC2)C[C@@H]1c1ccc(Cl)c(Cl)c1` [Example 168, 4-Chloro-N-[(3R,4S)-1-(1-cyclopropylmethyl-piperidine-4-carbonyl)-4-(3,4-dichloro-phenyl)-pyrrolidin-3-yl]-N-methyl-3-trifluoromethyl-benzamide], the pKi on human NK2 receptor is 9.40.

With `CN(C(=O)c1cc(C(F)(F)F)ccn1)[C@@H]1CN(C(=O)C2CCN(C(=O)C3(C)CC3)CC2)C[C@H]1c1ccc(Cl)c(Cl)c1` [Example 170, 4-Trifluoromethyl-pyridine-2-carboxylic acid {(3S,4R)-4-(3,4-dichloro-phenyl)-1-[1-(1-methyl-cyclopropanecarbonyl)-piperidine-4-carbonyl]-pyrrolidin-3-yl}-methyl-amide], the negative-log Ki (pKi) on human NK2 receptor is 9.40.

Turning to `CN(C(=O)c1ccc(Cl)c(C2CC2)c1)[C@H]1CN(C(=O)C2CCN(C(=O)C3(C)CC3)CC2)C[C@@H]1c1ccc(Cl)c(Cl)c1` [Example 175, 4-Chloro-3-cyclopropyl-N-{(3R,4S)-4-(3,4-dichloro-phenyl)-1-[1-(1-methyl-cyclopropanecarbonyl)-piperidine-4-carbonyl]-pyrrolidin-3-yl}-N-methyl-benzamide], at human NK2 receptor, the pKi was 7.38.

Consider `CN(C(=O)c1ccc(Cl)c(C2CC2)c1)[C@@H]1CN(C(=O)C2CCN(C(=O)C3(C)CC3)CC2)C[C@H]1c1ccc(Cl)c(Cl)c1` [Example 176, 4-Chloro-3-cyclopropyl-N-{(3S,4R)-4-(3,4-dichloro-phenyl)-1-[1-(1-methyl-cyclopropanecarbonyl)-piperidine-4-carbonyl]-pyrrolidin-3-yl}-N-methyl-benzamide], for which the negative logarithm of the Ki (pKi) on human NK2 receptor is 9.22.

With `CC(=O)NC1(c2ccccc2)CCN(CC[C@H](CN(C)C(=O)c2ccccc2)c2ccc(Cl)c(Cl)c2)CC1` [Saredutant], in assay [1], the “efficacy in procedures sensitive to anti-depressants” value was “Efficacy”. Moreover, the “efficacy in exploration based procedures sensitive to anxiolytics” value in the assay on rodents was “effective”.

The values are drawn from US8404679B2, “Pyrrolidine derivatives as NK2 receptor antagonists” (Hoffmann-La Roche Inc., priority 2008, dated 2013).
